Experimental data published in US5756512A, “Treatment of non-small cell lung carcinoma” (SmithKline Beecham Corporation, priority 1996, dated 1998).

Columns and labels:
DNA topoisomerase I = conditions: background statement; cited from earlier work
[1] = tested on: non-small cell lung carcinoma; assay: clinical response, patient with metastatic non-small cell lung carcinoma, tumor size by CAT scan; assay type: in vivo, human; conditions: for response to pretreatment: pretreatment with VP-16 (etoposide) and cisplatin, same patient before topotecan
Protocol: One human patient with metastatic non-small cell lung carcinoma, who was refractory to pretreatment with VP-16 (etoposide) and cisplatin, received a course of therapy comprising intravenous administration of 1.5 mg of topotecan/m^2 of body surface area per day for five consecutive days. This course of therapy was repeated at least five more times at twenty-one day intervals (from the date of initiation of therapy) for a total of at least […] treatments. Tumor size regression was evaluated by CAT (computerized axial tomography) scan.

[2] = tested on: non-small cell lung carcinoma; assay: clinical response, second patient with non-small cell lung carcinoma; assay type: in vivo, human
[3] = stability of diluted topotecan solutions in plastic bags at room temperature (percentage of initial topotecan remaining); assay type: physicochemical; conditions: 0 hrs
Protocol: Stability--Shelf life surveillance of the intact vials is ongoing. Because the single-use lyophilized dosage form contains no antibacterial preservatives, it is advised that the reconstituted solution be discarded eight hours after initial entry into the vial. Further dilutions of the reconstituted solution to concentrations of 0.02 mg/ml and 0.1 mg.ml in 5% Dextrose Injection, USP, ("D5W") or 0.9% Sodium Chloride Injection, USP, ("NS") in plastic bags stored at room temperature yielded the following stability results:
PERCENTAGE OF INITIAL TOPOTECAN REMAINING IN SOLUTION

[4] = qualitative statement; cited from earlier work

Question: With `CC[C@@]1(O)C(=O)OCc2c1cc1n(c2=O)Cc2cc3ccccc3nc2-1` [camptothecin, reference compound] as the compound, how does the “inhibition of topoisomerase I” value (DNA topoisomerase I) read?
Answer: known to inhibit topoisomerase I

Question: For `N.N.[Cl][Pt][Cl]` [cisplatin], which response to pretreatment [1] is on record?
Answer: refractory

Question: With `COc1cc([C@@H]2c3cc4c(cc3[C@@H](O[C@@H]3O[C@@H]5CO[C@@H](C)O[C@H]5[C@H](O)[C@H]3O)[C@H]3COC(=O)[C@H]23)OCO4)cc(OC)c1O` [etoposide] as the compound, how does the response to pretreatment [1] read?
Answer: refractory

Question: For `CC(O)CCC(=O)c1ccoc1` (stereo not drawn) [ipomeanol, reference compound], which “response to previous ipomeanol” value ([2]; same patient before topotecan) is on record?
Answer: failed to respond

Question: With `CC[C@@]1(O)C(=O)OCc2c1cc1n(c2=O)Cc2cc3c(CN(C)C)c(O)ccc3nc2-1` [topotecan, (S)-9-dimethylaminomethyl-10-hydroxycamptothecin] as the compound, how does the “Percentage of initial topotecan remaining in solution” value ([3]; D5W, 0.02 mg/ml) read?
Answer: 100.00%

Question: And the “Percentage of initial topotecan remaining in solution” value ([3]; D5W, 0.1 mg/ml)?
Answer: 100.00%

Question: And the “Percentage of initial topotecan remaining in solution” value ([3]; NS, 0.02 mg/ml)?
Answer: 100.00%

Question: And the “Percentage of initial topotecan remaining in solution” value ([3]; NS, 0.1 mg/ml)?
Answer: 100.00%

Question: And the “tumor size regression (CAT scan)” value ([1]; one patient refractory to VP-16 and cisplatin, i.v. 1.5 mg/m^2 per day, five consecutive days, repeated at twenty-one day intervals, after six treatment regimen)?
Answer: a complete regression of the disease was observed

Question: What about the “response (measurable tumor size regression)” value ([2]; one patient, prior radiation and ipomeanol, at least one course i.v. 1.5 mg/m^2 per day, five consecutive days) of the same compound?
Answer: a temporary response (measurable tumor size regression) was observed

Question: And the “inhibition of topoisomerase I” value (DNA topoisomerase I)?
Answer: specific inhibitor of DNA topoisomerase I

Question: What about the water solubility [4] of the same compound?
Answer: water-soluble
